For this experiment, the target named is T1, human PD-1 / PD-L1-Ig binding on Jurkat cell line over-expressing human PD-1 (Jurkat-PD-1) (Homo sapiens, UniProt Q15116).
T1 construct: expressed in transfected cells; host or cells: Jurkat
Kind of experiment: Jurkat-PD-1 Cell Binding High-Content Screening Assay (CBA). In kind it is cell-based. In a few lines:
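Jurkat-hPD-1 cells in DMEM with 10% fetal calf serum receive test compound and are held at 37° C for 2 h. PE-labeled PD-L1-Ig is added at 20 nM final and left for 1 hour. Cells are then fixed and Hoechst-stained, and binding is measured by imaging.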

The mark [1] stands for this setting: Jurkat-PD-1 cells, PE-labeled PD-L1-Ig 20 nM final; read-out: Jurkat HPD1_PDL1 IC50.

Where two headings read alike, the source gives them in different places. Where a SMILES comes first, the peptide text is derived from it. Bridges are numbered along the chain shown (N, C = ends). [ ]: non-standard residue; d: D form. The star is where a group is joined. ξ: configuration not given here. Phe(4-COOH) = N[C@@H](Cc1ccc(C(=O)O)cc1)C(=O)O; Bip = N[C@@H](Cc1ccc(-c2ccccc2)cc1)C(=O)O; Phe(3-Me) = Cc1cccc(C[C@H](N)C(=O)O)c1; Val(3-OH) = CC(C)(O)[C@H](N)C(=O)O; Cha = N[C@@H](CC1CCCCC1)C(=O)O; Cit = NC(=O)NCCC[C@H](N)C(=O)O; Ile(3ξ) = CCC(C)[C@H](N)C(=O)O; Thr(3ξ) = CC(O)[C@H](N)C(=O)O; Carboxymethyl = O=C(O)C*; Orn = NCCC[C@H](N)C(=O)O; Dab = NCC[C@H](N)C(=O)O; Dap = NC[C@H](N)C(=O)O

As usually defined, the IC50 is the concentration that inhibits the measured activity by half.

T1 sequence (Q15116 25-288): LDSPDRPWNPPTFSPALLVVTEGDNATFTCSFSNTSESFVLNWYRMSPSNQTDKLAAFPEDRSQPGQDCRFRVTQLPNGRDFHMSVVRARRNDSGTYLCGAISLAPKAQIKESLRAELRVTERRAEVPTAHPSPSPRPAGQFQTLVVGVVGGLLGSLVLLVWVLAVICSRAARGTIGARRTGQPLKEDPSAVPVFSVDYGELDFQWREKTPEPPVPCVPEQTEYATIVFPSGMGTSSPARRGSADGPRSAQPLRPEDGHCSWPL

Take `CC(C)C[C@H]1NC(=O)[C@H](CCCN)NC(=O)[C@H](C(C)C)NC(=O)[C@H](Cc2ccc(-c3ccccc3)cc2)NC(=O)[C@H](C(C)C)NC(=O)[C@H](Cc2c[nH]c3ccccc23)NC(=O)[C@H](CC(=O)O)NC(=O)[C@H](Cc2ccc(C(=O)O)cc2)NC(=O)[C@H](Cc2ccc(OCC(=O)O)cc2)NC(=O)CSC[C@@H](C(=O)N[C@@H](C)C(N)=O)NC(=O)[C@H](CN)NC(=O)[C@H](C(C)C)NC(=O)[C@H](CC2CCCCC2)NC(=O)[C@H](CCN)NC1=O` [Compound 1739] ({CH2CO}-Y(Carboxymethyl)[Phe(4-COOH)]DWV[Bip]V[Orn][dL][Dab][Cha]V[Dap]CA-NH2; thioether N-14): the IC50 under setting [1] turned out to be 9.9 nM. For `Cc1cccc(C[C@@H]2NC(=O)[C@H](CC(=O)O)NC(=O)[C@H](Cc3ccc(C(=O)O)cc3)NC(=O)[C@H](C(C)O)NC(=O)CSC[C@@H](C(=O)N[C@@H](CCN)C(N)=O)NC(=O)[C@H](CO)NC(=O)[C@H](C(C)(C)O)NC(=O)[C@H](CC3CCCCC3)NC(=O)[C@H](CCN)NC(=O)[C@@H](CC(C)C)NC(=O)[C@H](CCCN)NC(=O)[C@H](Cc3ccc(C(=O)O)cc3)NC(=O)[C@H](Cc3ccc(-c4ccccc4)cc3)NC(=O)[C@H](Cc3ccc(C(=O)O)cc3)NC2=O)c1` (stereo partly drawn) [Compound 2665] ({CH2CO}-[Thr(3ξ)][Phe(4-COOH)]D[Phe(3-Me)][Phe(4-COOH)][Bip][Phe(4-COOH)][Orn][dL][Dab][Cha][Val(3-OH)]SC[Dab]-NH2; thioether N-14), the IC50 under setting [1] was determined as 3.4 nM.

On to `CC(C)C[C@@H]1NC(=O)[C@H](C(C)C)NC(=O)[C@H](CC2CCCCC2)NC(=O)[C@H](CCN)NC(=O)[C@@H](CC(C)C)NC(=O)[C@H](CCCN)NC(=O)[C@H](CCCNC(N)=O)NC(=O)[C@H](Cc2ccc(-c3ccccc3)cc2)NC(=O)[C@H](C(C)C)NC(=O)[C@H](Cc2c[nH]c3ccccc23)NC(=O)[C@H](CC(=O)O)NC(=O)[C@H](Cc2ccc(OCC(=O)O)cc2)NC(=O)[C@H](CN)NC(=O)CSC[C@@H](C(=O)N[C@@H](C)C(N)=O)NC1=O` [Compound 1321] ({CH2CO}-[Dap]Y(Carboxymethyl)DWV[Bip][Cit][Orn][dL][Dab][Cha]VLCA-NH2; thioether N-14), for which, under setting [1], the IC50 was 78.6 nM. Same read-out and setting: under `CC(C)C[C@@H]1NC(=O)[C@H](CCN)NC(=O)[C@@H](CC(C)C)NC(=O)[C@H](CCN)NC(=O)[C@H](CCC(=O)O)NC(=O)[C@H](Cc2ccc(-c3ccccc3)cc2)NC(=O)[C@H](C(C)C)NC(=O)[C@H](Cc2c[nH]c3ccccc23)NC(=O)[C@H](CC(=O)O)NC(=O)[C@H](Cc2ccc(C(=O)O)cc2)NC(=O)[C@H](Cc2ccc(OCC(=O)O)cc2)NC(=O)CSC[C@@H](C(=O)N[C@@H](C)C(N)=O)NC(=O)[C@H](CO)NC(=O)[C@H](C(C)C)NC1=O` [Compound 1269] ({CH2CO}-Y(Carboxymethyl)[Phe(4-COOH)]DWV[Bip]E[Dab][dL][Dab]LVSCA-NH2; thioether N-14) stands 40.4 nM. Turning to `CCC(C)[C@@H]1NC(=O)[C@H](Cc2ccc(-c3ccccc3)cc2)NC(=O)[C@H](Cc2c[nH]cn2)NC(=O)[C@H](Cc2c[nH]c3ccccc23)NC(=O)[C@H](CC(=O)O)NC(=O)[C@H](Cc2ccc(OCC(=O)O)cc2)NC(=O)[C@H](C(C)O)NC(=O)CSC[C@@H](C(=O)N[C@@H](CC(N)=O)C(=O)O)NC(=O)[C@H](CO)NC(=O)[C@H](C(C)C)NC(=O)[C@H](CC(C)C)NC(=O)[C@H](CCN)NC(=O)[C@@H](CC(C)C)NC(=O)[C@H](CCCN)NC1=O` (stereo partly drawn) [Compound 2580] ({CH2CO}-[Thr(3ξ)]Y(Carboxymethyl)DWH[Bip][Ile(3ξ)][Orn][dL][Dab]LVSCN-OH; thioether N-14), the IC50 (read-out: Jurkat HPD1_PDL1 IC50; Jurkat-PD-1 cells, PE-labeled PD-L1-Ig 20 nM final) was determined as 45 nM. Regarding `CC(C)C[C@H]1NC(=O)[C@H](CCCN)NC(=O)[C@H](C(C)C)NC(=O)[C@H](Cc2ccc(-c3ccccc3)cc2)NC(=O)[C@H](C(C)C)NC(=O)[C@H](Cc2c[nH]c3ccccc23)NC(=O)[C@H](CC(=O)O)NC(=O)[C@H](Cc2ccc(C(=O)O)cc2)NC(=O)[C@H](Cc2ccncc2)NC(=O)CSC[C@@H](C(=O)N[C@@H](C)C(N)=O)NC(=O)[C@H]([C@@H](C)O)NC(=O)[C@H](C(C)C)NC(=O)[C@H](CC2CCCCC2)NC(=O)[C@H](CCN)NC1=O` [Compound 1689], the half-inhibitory concentration (IC50) under setting [1] was 27 nM.
